From patent publication US8563587B2, “Methods and compositions for treating fish diseases” (HaloSource, Inc., priority 2006, dated 2013)

Assays:
[1] = TAC measured in the fish tanks of Comparative Example 2; format: physicochemical; conditions: 10 minutes after addition of 300 mg MC in 95% EtOH diluted to 100 mL
Protocol: (§1) The fish were allowed to acclimate with their surroundings for a period of three days. For the experimental tanks, 300 mg of MC dissolved in 30 g 95% EtOH followed by dilution to 100 mLs total volume with DI water was added. For the control tanks 30 g 95% EtOH diluted to 100 mLs total volume with DI water was added. TAC was measured in the experimental tanks 10 minutes after the addition of the MC solution: HEX-2=7.1 ppm TAC; HEX-4=6.0 ppm TAC. Within three hours, all 11 of the Glow Lite Tetras were dead and 3 out of 5 Black Skirt Tetras were dead.
(§2) The fish were allowed to acclimate with their surroundings for a period of 4 hours. All tanks began with 0 ppm TAC. Tablets of MC made from 0.11 g MC pressed with 0.89 g MgSO4, with a ⅝″-diameter tablet as described in EXAMPLE 1 were added to each tank as follows: • (a) Hex-1: 5 Black Skirt Tetras—3 tablets on day 1, 4 tablets on day 2 • (b) Hex-3: 5 Glow Lite Tetras—3 tablets on day 1, 3 tablets on day 2 • (c) Hex-4: 5 Glow Lite Tetras—2 tablets on day 1, 2 tablets on day 2
(§3) Tanks Hex-1 and 2 measured above 6 ppm TAC each day, but took approximately three hours to reach a TAC above 6 ppm. HEX 4 rose to a TAC level of 4.1 ppm TAC within the first day. No fish died throughout the 48-hour experiment.

[2] = test system: GlowLite (Hemigrammus erthrozonus); assay: Fish mortality, MC in ethanol vs MC tablets (Comparative Example 2); format: in vivo; conditions: of 11 Glow Lite Tetras, within three hours; 300 mg MC in 95% EtOH/water added at once, 6.0 ppm TAC
Protocol: (§4) A study was performed in which GlowLite (Hemigrammus erthrozonus) and Black Skirt Tetras (Gymnocorymbus ternetzi) were subjected to treatment with MC dissolved in 95% Ethanol (then diluted with water) and another set of the same fish subjected to MC tablets as described in EXAMPLE 1 dosed to equal levels of MC.
(§5) Part 1: Four 5-gallon hexagonal fish tanks were set up as follows: • (a) Hex-1: 5 Black Skirt Tetras (Control Tank—0 ppm TAC) • (b) Hex-2: 5 Black Skirt Tetras (Experimental Tank) • (c) Hex-3: 11 Glow Lite Tetras (Control Tank—0 ppm TAC) • (d) Hex-4: 11 Glow Lite Tetras (Experimental Tank)
as §1
(§6) Part 2: Three 5-gallon hexagonal fish tanks were set up as follows: • (a) Hex-1: 5 Black Skirt Tetras • (b) Hex-3: 5 Glow Lite Tetras • (c) Hex-4: 5 Glow Lite Tetras
as §2, §3

[3] = test system: Black Skirt Tetras (Gymnocorymbus ternetzi); assay: as above; format: in vivo; conditions: 300 mg MC in 95% EtOH/water added at once, 7.1 ppm TAC
Protocol: as §4, §5, §1, §6, §2, §3

For CC1(C)NC(=O)C(C)(C)N1Cl [MC, 1-Chloro-2,2,5,5-tetramethylimidazolidin-4-one], the “TAC in experimental tank” value ([1]; HEX-2 (Black Skirt Tetras)) was 7.1 ppm TAC, the “TAC in experimental tank” value ([1]; HEX-4 (Glow Lite Tetras)) was 6.0 ppm TAC and the dead fish [2] was 11. For the same compound, the dead fish ([3]; within 24 hours) was “the remainder of the Black Skirt Tetras were dead” and the dead fish ([3]; within three hours) was 3 out of 5.
